In patent US11261183B2, “Sulfoximine glycosidase inhibitors” (Asceneuron SA, priority 2016, dated 2022):
pIC50: −log10 of the molar value.

Tests used:
[1] = Protein binding in mice plasma using Rapid Equilibrium Dialysis; assay type: in vitro ADME, CD1 mice; conditions: 37° C.; for fraction unbound at 5 h, 1 µM: male, CD1, mouse, plasma, pH 7.4, CD1 mouse plasma; for % fraction unbound in mouse plasma: CD1 mouse plasma, 5 hours
Experimental: Example B04: Protein binding in mice plasma using Rapid Equilibrium Dialysis
• CD1 Mice Plasma: pooled male, K2-EDTA ([…]2, Bioreclammation, USA • Phosphate Buffered Saline (1×PBS), pH 7.4, 100 mM (Sigma, Cat No. P4417) • RED inserts (Pierce, Cat No. 9006, 8 kDa MWCO) • Sample Analysis: LC-MS/MS Methods • Preparation of DMSO Stock Solution
From 20 mM DMSO stock solutions of reference and test compounds, 1 mM DMSO intermediate working solutions are prepared. From 1 mM intermediate working solutions, 100 μM DMSO working solutions are prepared. • Sample Preparation Procedure:
Selected plasma is brought from −20° C. to 37° C. using water bath before its use. Test solution is prepared by adding the DMSO working solution of the reference or test compound (2 μL; 100 μM) to the selected plasma (198 μL). Spiked plasma (200 μl) is transferred to sample compartment of RED insert placed in the teflon plate. 350 μl of 1×PBS is added in the buffer compartment of RED insert. The teflon plate is covered with sealing mat and agitated at 37° C. for 5 hours at 500 RPM in a Thermomixer. After incubation time, an aliquot of plasma (50 μl) from sample compartment is mixed with blank 1×PBS (50 μl). Similarly, an aliquot of buffer (50 μl) from buffer compartment is mixed with blank plasma (50 μl). Quenching solution (200 μL, acetonitrile containing internal standard tolbutamide (0.5 μg/mL)) is added and the resulting solutions are mixed using a vortex mixer and centrifuged (Eppendorf 5415, 13792 g). Supernatants are analyzed using a Mass Spectrometer. The sample (supernatant fraction, 5 μL) is injected into the LC-MS/MS instrument. • Chromatographic Conditions: LC-MS/MS: API 4000 LC-MS/MS Software: Analyst Version 1.6.1 Column Phenomenex Synergy 30*4.6*5μ Column Oven: 40° C. Mode: ESI Positive Injection volume: 5 μl Flow Rate: […] Buffer: 0.1% Formic acid in Water Method: Isocratic Method/Gradient Composition: A) 0.1% Formic acid in Water B) 0.1% Formic acid in Methanol
After the concentration of free drug and total drug has been determined by LCMS/MS, percent plasma protein binding can be calculated as follows:
[formula] Following this protocol, % fraction unbound in plasma from different species can be also measured.

[2] = target: Human O-GlcNAcase (His-Tagged hOGA) (Homo sapiens (Human), UniProt O60502); assay: Human O-GlcNAcase enzyme inhibition assay; assay type: biochemical; conditions: His-Tagged hOGA 20 nM, FL-GlcNAc 10 μM, 60 min, room temperature, pH 6.5; read-out: Enzymatic OGA IC50
Sequence of Human O-GlcNAcase (His-Tagged hOGA) (O60502 whole entry): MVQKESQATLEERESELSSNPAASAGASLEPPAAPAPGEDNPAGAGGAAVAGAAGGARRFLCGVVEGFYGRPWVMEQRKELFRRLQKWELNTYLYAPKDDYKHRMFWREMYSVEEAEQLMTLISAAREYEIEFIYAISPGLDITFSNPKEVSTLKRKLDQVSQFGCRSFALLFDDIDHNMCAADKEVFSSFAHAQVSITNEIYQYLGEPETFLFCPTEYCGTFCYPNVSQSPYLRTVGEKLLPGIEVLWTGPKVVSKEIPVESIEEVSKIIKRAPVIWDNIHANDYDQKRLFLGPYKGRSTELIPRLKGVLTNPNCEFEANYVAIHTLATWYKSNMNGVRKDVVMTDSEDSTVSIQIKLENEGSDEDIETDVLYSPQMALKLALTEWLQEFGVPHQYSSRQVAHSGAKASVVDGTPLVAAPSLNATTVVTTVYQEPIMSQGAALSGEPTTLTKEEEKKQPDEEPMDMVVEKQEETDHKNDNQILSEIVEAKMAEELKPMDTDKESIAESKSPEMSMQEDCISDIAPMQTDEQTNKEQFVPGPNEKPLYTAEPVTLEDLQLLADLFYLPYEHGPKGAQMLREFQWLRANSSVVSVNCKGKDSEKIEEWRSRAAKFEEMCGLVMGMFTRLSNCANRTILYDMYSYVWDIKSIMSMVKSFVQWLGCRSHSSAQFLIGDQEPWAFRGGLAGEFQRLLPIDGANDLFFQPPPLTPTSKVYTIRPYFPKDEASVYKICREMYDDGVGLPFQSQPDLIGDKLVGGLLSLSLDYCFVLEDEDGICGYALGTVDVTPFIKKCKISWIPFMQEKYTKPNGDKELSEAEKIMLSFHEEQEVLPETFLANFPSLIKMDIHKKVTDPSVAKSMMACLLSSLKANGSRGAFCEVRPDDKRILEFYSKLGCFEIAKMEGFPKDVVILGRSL
Experimental: Example B01: Human O-GlcNAcase enzyme inhibition assay
5 μl of the appropriate concentration of a solution of inhibitor in McIlvaine's Buffer (pH 6.5) in 2% DMSO (for a dose response curve calculation) is added into each well of a 384-well plate (Greiner, 781900). Then, 20 nM of His-Tagged hOGA and 10 μM of FL-GlcNAc (Fluorescein mono-beta-D-(2-deoxy-2-N-acetyl) glucopyranoside; Marker Gene Technologies Inc, M1485) were added to the 384-well plate for a final volume of 20 μl. After incubation for 60 min at room temperature, the reaction was terminated by the addition of 10 μL of stop buffer (200 mM glycine, pH 10.75).

Row | Structure (SMILES) | fraction unbound at 5 h, 1 µM [1] | pIC50 [2] | % fraction unbound in mouse plasma [1]
1 | CC(c1ccc2scnc2c1)N1CCN(c2ncc(S(C)(=N)=O)cn2)CC1 (single isomer, unassigned) [Example 34, (2-(4-((S)-1-(benzo[d]thiazol-5-yl)ethyl)piperazin-1-yl)pyrimidin-5-yl)(imino)(methyl)-λ^6-sulfanone or (2-(4-((R)-1-(benzo[d]thiazol-5-yl)ethyl)piperazin-1-yl)pyrimidin-5-yl)(imino)(methyl)-λ^6-sulfanone] | 0.257 | > 7.30 | –
2 | CC(c1ccc2scnc2c1)N1CCN(c2ncc(S(C)(=N)=O)cn2)CC1 (single isomer, unassigned) [Example 35] | – | > 7.30 | 33.7%
3 | CC(c1ccc2scnc2c1)N1CCN(c2ncc(S(C)(=N)=O)cn2)CC1 (single isomer, unassigned) [Example 36] | – | > 7.30 | 45.51%
4 | CN=S(C)(=O)c1cnc(N2CCN(C(C)c3ccc4scnc4c3)CC2)nc1 (single isomer, unassigned) [Example 37] | 0.278 | > 7.30 | –

More lines, now with the values ahead:

Row | fraction unbound at 5 h, 1 µM [1] | pIC50 [2] | % fraction unbound in mouse plasma [1] | Structure (SMILES)
5 | 0.0838 | > 7.30 | – | Cc1nc2cc(C(C)N3CCN(c4ncc(S(C)(=N)=O)cn4)CC3)ccc2s1 (single isomer, unassigned) [Example 51]
6 | – | > 7.30 | 12.81% | Cc1nc2cc(C(C)N3CCN(c4ncc(S(C)(=N)=O)cn4)CC3)ccc2s1 (single isomer, unassigned) [Example 53]
